The values that follow come from patent US5187187A, “Irreversible ligands for nonsteroidal antiinflammatory drug and prostaglandin binding sites” (Trustees of the University of Pennsylvania, priority 1991, dated 1993).

The target in series [1] is T1, 3α-HSD (Rattus norvegicus, UniProt P23457).
T1 construct: The homogeneous 3α-HSD of rat liver cytosol; from tissue; host or cells: rat liver cytosol
T1 sequence (P23457 1-322): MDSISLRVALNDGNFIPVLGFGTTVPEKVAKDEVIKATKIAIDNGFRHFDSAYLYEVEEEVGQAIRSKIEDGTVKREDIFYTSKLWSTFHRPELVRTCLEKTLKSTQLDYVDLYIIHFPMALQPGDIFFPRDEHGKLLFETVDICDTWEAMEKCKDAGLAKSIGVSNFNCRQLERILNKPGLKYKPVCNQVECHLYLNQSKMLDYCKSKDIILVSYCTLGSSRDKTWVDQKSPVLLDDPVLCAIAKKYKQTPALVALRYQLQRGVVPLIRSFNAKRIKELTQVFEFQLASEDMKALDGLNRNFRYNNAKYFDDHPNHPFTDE
The series is described as follows: Time and concentration dependent inactivation of 3α-HSD, method of Kitz and Wilson. The series is classed as biochemical. Particulars: for t1/2 life for the enzyme at saturating inactivator concentrations: Kitz and Wilson analysis; for Return of activity of inactivated enzyme by extensive dialysis: after inactivation; for Loss of 3α-HSD activity (inactivation): incubation of enzyme with inactivator; for KI (inactivation): independent determination from time dependent inactivation, 1/kapp vs 1/[Inhibitor], pH 7.0, read-out: Ki (Kitz and Wilson analysis of inactivation). The method, then:
The difference in the Ki 's determined from the two methods can probably be attributed to the difference in the binding order in the enzymatic mechanism.
Inactivation of […] (15 μM) was conducted in incubations (50 μl) of 10 mM potassium phosphate buffer pH 7.0 containing 1 mM EDTA and 4% acetonitrile as a cosolvent. Enzyme activity was followed over time by diluting an aliquot of the incubation mixture in a 1 ml assay containing 2.3 mM […] and 75 μM androsterone in 0.1 M potassium phosphate buffer, pH 7.0 containing 1 mM mercaptoethanol, with 4% acetonitrile as a cosolvent. Initial rates were determined as described in FIG. 1. Because of the 100 fold or greater dilution of the enzyme into the assay, the initial rate measured is an indication of the enzyme activity remaining at that time. Initial rates of inactivation (kapp 's) were determined from semilogarithmic plots of percent enzyme activity remaining versus time. Data was replotted (FIG. 2b) as 1 /kapp vs 1/[Inhibitor] from which kinact (the rate constant for enzyme inactivation) and Ki (the binding constant for compound (VII)) were determined.

The target in series [2] is T1, 3α-HSD. Briefly: Competitive inhibition of androsterone oxidation catalyzed by 3α-HSD, initial velocity conditions, method of Dixon. It is filed as biochemical. Particulars: inhibition constants under initial velocity conditions, NADH formation at 340 nm, pH 7.0.
Description: Initial rates were determined spectrophotometrically by measuring the rate of NADH formation at 340 nM over 5 minutes in an assay containing 2.3 mM AND^+ in 0.1 M potassium phosphate buffer pH 7.0, with 4% acetonitrile (v/v) as a cosolvent in a 1 ml system. The assay was started by the addition of enzyme. […] From the slope of this plot, the Ki was determined.
The conditions of series [3]: in vivo; cited from earlier work.

A word on the Ki: it is the dissociation constant of the complex between target and ligand, obtained from inhibition or displacement. Higher therefore signals weaker binding. With `COc1ccc2c(c1)c(CC(=O)O)c(C)n2Cc1ccc(NC(=O)CBr)cc1` [Compound (VI), 1-(4-bromoacetamidobenzyl)-5-methoxy-2-methylindole-3-aceticacid], at 3α-HSD [1], the “t1/2 life for the enzyme at saturating inactivator concentrations” value (from here on “t1/2 life for the enzyme”) is 40.2 s; the “Return of activity of inactivated enzyme by extensive dialysis” value (shortened to “Return of activity of inactivated enzyme”) is listed as “cannot be returned by extensive dialysis”; the “Loss of 3α-HSD activity (inactivation)” value was “time and concentration dependent loss of 3α-HSD activity”; the KI (inactivation) amounted to 233 µM. The same molecule gave a Ki on 3α-HSD [2] of 15 µM.
Consider `O=C(CBr)Nc1ccc(Nc2ccccc2C(=O)O)cc1` [Compound (VII), N-(4-bromoacetamidophenyl) anthranilic acid], for which, at 3α-HSD [1], the “t1/2 life for the enzyme” value came to 12.1 s; the “Return of activity of inactivated enzyme” value is on record as “cannot be returned by extensive dialysis”; the “Loss of 3α-HSD activity (inactivation)” value is “time and concentration dependent loss of 3α-HSD activity”; the KI (inactivation) worked out at 161 µM. At 3α-HSD [2], this molecule returned a Ki of 2.5 µM.
As to `Cc1ccc(Cl)c(Nc2ccccc2C(=O)O)c1Cl` [Meclofenamate (II), meclofenamic acid, reference compound], at 3α-HSD [2], affinity was put at a Ki of 1.1 µM.
As to `CC(=O)Oc1ccccc1C(=O)O` [aspirin, acetyl salicylate], the “plasma t1/2 life” value in series [3] is 900 s.
Turning to `COc1ccc2c(c1)c(CC(=O)O)c(C)n2C(=O)c1ccc(Cl)cc1` [Indomethacin (I), indomethacin, reference compound], on 3α-HSD [2], the affinity corresponds to a Ki of 0.835 µM. This lies in the sub-micromolar range.
Take `O=C(CBr)Nc1cccc(Nc2ccccc2C(=O)O)c1` [Compound (VIII), N-(3-bromoacetamidophenyl) anthranilic acid]: on 3α-HSD [1], the “t1/2 life for the enzyme” value is 7.1 s; the “Return of activity of inactivated enzyme” value is on record as “cannot be returned by extensive dialysis”; the “Loss of 3α-HSD activity (inactivation)” value is “time and concentration dependent loss of 3α-HSD activity”; the KI (inactivation) stood at 155 µM. The molecule also yielded a Ki at 3α-HSD [2] of 1.5 µM.
Turning to `Cc1ccc(C(=O)c2ccc(CC(=O)O)n2C)cc1` [Tolmetin (IV), tolmetin, reference compound], the Ki on 3α-HSD [2] came out at 29 µM.
